Results published in patent US5744485A, “Carbamates and ureas as modifiers of multi-drug resistance” (Vertex Pharmaceuticals Incorporated, priority 1995, dated 1998).

Columns and labels:
[1] = tested on: L1210 mouse leukemia cells transformed with the pHaMDR1/A retrovirus carrying a MDR1 cDNA (L1210VMDRC.06); test: MDR sensitization assay: reversal of MDR to doxorubicin in L1210VMDRC.06 cells (MTT or XTT viability, 3 days) (Table 1); conditions: for MDR Ratio 1.0 μM Cpd. / MDR Ratio (2.5 μM): mouse, l1210vmdrc.06 cells, 72 h
Method: To assay the ability of the compounds according to this invention to increase the antiproliferative activity of a drug, cell lines which are known to be resistant to a particular drug may be used. These cell lines include, but are not limited to, the L1210, P388D, CHO and MCF7 cell lines. Alternatively, resistant cell lines may be developed. The cell line is exposed to the drug to which it is resistant, or to the test compound; cell viability is then measured and compared to the viability of cells which are exposed to the drug in the presence of the test compound.
We have carried out assays using L1210 mouse leukemia cells transformed with the pHaMDR1/A retrovirus carrying a MDR1 cDNA, as described by Pastan et al., Proc. Natl. Acad. Sci., Vol. 85, 4486-4490 (1988). The resistant line, labelled L1210VMDRC.06, was obtained from Dr. M. M. Gottesman of the National Cancer Institute.
Multi-drug resistance assays were conducted by plating cells (2×10^3, 1×10^4, or 5×10^4 cells/well) in 96 well microtiter plates and exposing them to a concentration range of doxorubicin (50 nM-10 μM) in the presence or absence of multi-drug resistance modifier compounds ("MDR inhibitors") of this invention (1, 2.5 or 10 μM) as described in Ford et al., Cancer Res., Vol. 50, 1748-1756. (1990). After culture for 3 days, the viability of cells was quantitated using MTT (Mossman) or XTT dyes to assess mitochondrial function. All determinations were made in replicates of 4 or 8. Also see, Mossman T., J. Immunol. Methods, Vol. 65, 55-63 (1983).
Results were determined by comparison of the IC50 for doxorubicin alone to the IC50 for doxorubicin+MDR inhibitor. An MDR ratio was calculated (IC50 Dox/IC50 Dox+Inhibitor) and the integer value used for comparison of compound potencies.

HL60/ADR cells = test: Inhibition of MRP-mediated MDR: reversal of MDR to doxorubicin in HL60/ADR cells (XTT viability, 3 days) (Table 2); format: cell-based; conditions: Homo sapiens, 72 h, read-out: IC50 Dox alone
Method: We plated HL60/ADR cells in 96 well microtiter plates (4×10^4 cells/well). The cells were then exposed to various concentrations of doxorubicin (50 nM to 10 μM) in the presence or absence of various compounds of this invention at various concentrations (0.5-10 μM). After culturing the cells for 3 days, their viability was quantitated using the XTT dye method to assess mitochondrial function. Results were expressed as a ratio of the IC50 for doxorubicin alone to the IC50 for doxorubicin plus MDR inhibitor. IC50 values are expressed in nM. In all assays the intrinsic antiproliferative or cytotoxicity activity of the MDR inhibitors was also determined for HL60/ADR cells.

## COc1cc(N(C)C(=O)N2CCCC[C@H]2C(=O)OC(CCCc2cccnc2)CCCc2cccnc2)cc(OC)c1OC [Compound 5, (S)-1-((3,4,5-Trimethoxyphenyl)-methyl-carbamoyl)-piperidine-2-carboxylic acid 4-pyridin-3-yl-1-(3-pyridin-3-yl-propyl)-butyl ester]
[1]
  MDR Ratio 1.0 μM Cpd.: 2.8
  MDR Ratio (2.5 μM): 7.8

## CN(C(=O)N1CCCC[C@H]1C(=O)OC(CCCc1cccnc1)CCCc1cccnc1)c1cccc(C(F)(F)F)c1 [Compound 6, (S)-1-((3-Trifluoromethylphenyl)-methyl-carbamoyl)-piperidine-2-carboxylic acid 4-pyridin-3-yl-1-(3-pyridin-3-yl-propyl)-butyl ester]
[1]
  MDR Ratio (2.5 μM): 14.6

## CN(C(=O)N1CCCC[C@H]1C(=O)OC(CCCc1cccnc1)CCCc1cccnc1)c1ccc(C(C)(C)C)cc1 [Compound 7, (S)-1-((4-Tert-butylphenyl)-methyl-carbamoyl)-piperidine-2-carboxylic acid 4-pyridin-3-yl-1-(3-pyridin-3-yl-propyl)-butyl ester]
[1]
  MDR Ratio 1.0 μM Cpd.: 4.0
  MDR Ratio (2.5 μM): 15.4

## CC(C)c1ccc(N(C)C(=O)N2CCCC[C@H]2C(=O)OC(CCCc2cccnc2)CCCc2cccnc2)cc1 [Compound 8, (S)-1-((4-Isopropylphenyl)-methyl-carbamoyl)-piperidine-2-carboxylic acid 4-pyridin-3-yl-1-(3-pyridin-3-yl-propyl)-butyl ester]
[1]
  MDR Ratio 1.0 μM Cpd.: 1.9
  MDR Ratio (2.5 μM): 3.6

## O=C(OC(CCCc1cccnc1)CCCc1cccnc1)[C@@H]1CCCCN1C(=O)N1CCCCC1 [Compound 9, (S)-1-(Piperidine-1-carbonyl)-piperidine-2-carboxylic acid 4-pyridin-3-yl-1-(3-pyridin-3-yl-propyl)-butyl ester]
[1]
  MDR Ratio 1.0 μM Cpd.: 1.3
  MDR Ratio (2.5 μM): 6.9

## COc1cc(OC(=O)N2CCCC[C@H]2C(=O)OC(CCCc2cccnc2)CCCc2cccnc2)cc(OC)c1OC [Compound 11, (S)-Piperidine-1,2-dicarboxylic acid 1-(3,4,5-trimethoxyphenyl) ester 2-(4-pyridin-3-yl-1-(3-pyridin-3-yl-propyl)-butyl) ester]
[1]
  MDR Ratio 1.0 μM Cpd.: 1.2
  MDR Ratio (2.5 μM): 2.3

## COc1cc(N(C)C(=O)N2CCCC[C@H]2C(=O)OC(CCc2ccccc2)CCc2ccccc2)cc(OC)c1OC [Compound 13, (S)-1-((3,4,5-Trimethoxyphenyl)-methyl-carbamoyl)-piperidine-2-carboxylic acid 1-(2-phenyl-ethyl)-3-phenyl-propyl ester]
[1]
  MDR Ratio 1.0 μM Cpd.: 3.0
  MDR Ratio (2.5 μM): 11.5

## CN(C(=O)N1CCCCC1C(=O)OC(CCc1ccccc1)CCc1ccccc1)c1ccc(S(=O)(=O)O)cc1 (stereo not drawn) [Compound 14, 4-(Methyl-(2-(1-phenethyl-3-phenyl-propoxycarbonyl)-piperidine-1-carbonyl)-amino)-benzenesulfonic acid]
[1]
  MDR Ratio 1.0 μM Cpd.: 1.9
  MDR Ratio (2.5 μM): 3.6

## CN(C(=O)N1CCCC[C@H]1C(=O)OC(COCc1ccccc1)COCc1ccccc1)c1ccc(N2CCOCC2)cc1 [Compound 16, (S)-1-(Methyl-(4-morpholin-1-yl-phenyl)-carbamoyl)-piperidine-2-carboxylic acid 2-benzyloxy-1-(benzyloxy-methyl)-ethyl ester]
[1]
  MDR Ratio (2.5 μM): 10.7

## CN(C(=O)N1CCCC[C@H]1C(=O)OC(COCc1ccccc1)COCc1ccccc1)c1ccc(N2CCCCC2)cc1 [Compound 17, (S)-1-(Methyl-(4-piperidin-1-yl-phenyl)-carbamoyl)-piperidine-2-carboxylic acid 2-benzyloxy-1-(benzyloxy-methyl)-ethyl ester]
[1]
  MDR Ratio (2.5 μM): 10.7

## O=C(OC(COCc1ccccc1)COCc1ccccc1)[C@@H]1CCCCN1C(=O)Oc1cccc2ncccc12 [Compound 18, (S)-Piperidine-1,2-dicarboxylic acid 2-(2-benzyloxy-1-(benzyloxymethyl)-ethyl)ester 1-quinolin-5-yl ester]
[1]
  MDR Ratio (2.5 μM): 13.6

## COc1cccc2c1C(=O)c1c(O)c3c(c(O)c1C2=O)C[C@@](O)(C(=O)CO)C[C@@H]3O[C@H]1C[C@H](N)[C@H](O)[C@H](C)O1 [Dox, doxorubicin, reference compound]
HL60/ADR cells
  IC50: 5 µM

## (S)-1-((3,4,5-Trimethoxyphenyl)-methyl-carbamoyl)-piperidine-2-carboxylic acid 4-pyridin-1-yl-1-(3-pyridin-1-yl-propyl)-butyl ester [Compound 10]
[1]; IC50 of doxorubicin in presence of 1 μM compound, L1210VMDRC.06 cells, 3 days
  IC50 Dox + 1 μM Cpd.: 400
[1]; IC50 of doxorubicin in presence of 2.5 μM compound, L1210VMDRC.06 cells, 3 days
  IC50 Dox + 2.5 μM Cpd.: 85
